The values below come from patent US6660741B2, “Asymmetric synthesis of (S,S,R)-(-)-actinonin and its analogs and uses therefor” (Sloan-Kettering Institute for Cancer Research, priority 2001, dated 2003).

What all share (assay type): cell-based
The subject of assay [1] is HL60 (acute myeloid leukemia, CD13 positive) cells. Description: Inhibition of tritiated thymidine incorporation, 5 day, HL60. The note with it: HL60, 5 days. Here is the method:
(§1) Actinonin was purchased from Sigma (St. Louis, Mo.). Biotinylated-Actinonin and all analogs were synthesized. Actinonin stock solution was 5 mg/ml in 10% ethanol. Biotinylated-actinonin and all other analogs were diluted in 10% DMSO to give stock solutions in the range of 1-20 mg/ml.
(§2) Daudi (B lineage Burkitt's lymphoma, CD13 negative) and HL60 (acute myeloid leukemia, CD13 positive) cells were maintained in culture using RPMI 1640 supplemented with 10% heat-inactivated FBS (Omega Scientific, Inc., Tarzana, Calif.) and 1% L-glutamine (Gibco/Invitrogen, Carlsbad, Calif.) at 37° C. in a humidified atmosphere of 5% CO2. Cell viability was higher than 90%, and cells were free of mycoplasma contamination.
(§3) An aliquot of 200 ul of cells (10,000 cells/well) was washed and incubated at 37° C. in 96-well plates in the presence or absence of actinonin/analogs. Serial dilutions were made in complete media. After 5 days of incubation, 50 ul of 10 uCi/mL tritiated thymidine (PerkinElmer, Boston, Mass.) was added to each well and allowed to incorporate for 5 hours. Plates were frozen at −80° C. overnight and cells were harvested onto filtermats (Wallac, Finland) using a semi-automatic harvester (Skatron, Sterling, Va.). Filtermats were counted in a 1205 Betaplate™ liquid scintillation counter (Wallac, Finland). The reference numbers refer to those analogs disclosed in Example 6. Compounds 35, 42, 48, 52, 53, and 56 are effective at inhibiting cell growth.
Background: Uptake of a labelled nucleoside into DNA is a usual measure of proliferation.

Assay [2] concerns Daudi (B lineage Burkitt's lymphoma, CD13 negative) cells. Description: Inhibition of tritiated thymidine incorporation, 5 day, Daudi. To be noted: 5 days. How it is done:
as §1, §2, §3

For a further assay, the system named is Daudi and HL60 cells. The assay can be described thus: Thymidine incorporation, summary statement on cell growth (Daudi and HL60). To be noted: summary of Tables 4 and 5. Here is the method: as §1, §2, §3
[3] abbreviates: Homo sapiens, HL-60, 120 h, read-out: HL60 IC50 (uM), 5 day thymidine incorporation.
The mark [4] stands for this setting: Homo sapiens, HL-60, 120 h, read-out: HL60 IC50 (ug/mL), 5 day thymidine incorporation.
[5] abbreviates: Homo sapiens, 120 h, read-out: Daudi IC50 (uM), 5 day thymidine incorporation.
[6] abbreviates: Homo sapiens, 120 h, read-out: Daudi IC50 (ug/mL), 5 day thymidine incorporation.

Where two headings read alike, the source gives them in different places. Some results are limits rather than exact numbers.

`CCCCC[C@H](CC(=O)N1CCN(C)CC1)C(=O)N[C@@H](Cc1ccccc1)C(=O)N1CCC[C@H]1CO` [Compound 62, 2-[2-(4-methyl-piperazin-1-yl)-2-oxo-ethyl]-heptanoic acid [1-benzyl-2-(2-hydroxymethyl-pyrrolidin-1-yl)-2-oxo-ethyl]-amide]: the IC50 in assay [1] (setting [3]) was more than 200 µM; in assay [1] (setting [4]) it was more than 100 µg/mL.
The corresponding values for `CCCCC[C@H](CC(=O)N(C)OC)C(=O)N[C@@H](Cc1ccccc1)C(=O)N1CCC[C@H]1CO` [Compound 65] are more than 217 µM and more than 100 µg/mL.
As to `CC(C)[C@H](NC(=O)[C@H](C)CC(=O)NO)C(=O)N1CCC[C@H]1CO` [Compound 48, N4-hydroxy-N1-(1-(2-hydroxymethyl-pyrrolidine-1-carbonyl)-2-methyl-propyl)-2-methyl-succinamide], the IC50 in assay [2] (setting [5]) stood at 22.4 µM; in assay [2] (setting [6]) it was 8 µg/mL; in assay [1] (setting [3]), 29.5 µM; in assay [1] (setting [4]) it was 10.5 µg/mL. Moreover, the inhibiting cell growth entry with Daudi and HL60 cells is listed as “effective”.
Take `CCCCC[C@H](CC(N)=O)C(=O)N[C@@H](CC(C)C)C(=O)N1CCC[C@H]1CO` [Compound 49, N1-(1-(2-hydroxymethyl-pyrrolidine-1-carbonyl)-3-methyl-butyl)-2-pentyl-succinamide]: the IC50 in assay [2] (setting [5]) was more than 130 µM; in assay [2] (setting [6]), more than 50 µg/mL; in assay [1] (setting [3]) it was more than 130 µM; in assay [1] (setting [4]), more than 50 µg/mL.
With `CCCCC[C@H](CC(=O)NCc1ccc([N+](=O)[O-])cc1)C(=O)N[C@@H](Cc1ccccc1)C(=O)N1CCC[C@H]1CO` [Compound 61], the results for the IC50 in assay [1] (setting [3]) and in assay [1] (setting [4]) were more than 181 µM and more than 100 µg/mL, respectively.
With `CCCCC[C@H](CC(=O)NO)C(=O)N[C@@H](Cc1ccccc1)C(=O)N1CCC[C@H]1C` [Compound 52], the IC50 amounted to 2.7 µM in assay [2] (setting [5]), 1.2 µg/mL in assay [2] (setting [6]), 12.1 µM in assay [1] (setting [3]) and 5.2 µg/mL in assay [1] (setting [4]). Also, the inhibiting cell growth result in the assay on Daudi and HL60 cells is given as “effective”.
`CCCCC[C@H](CC(=O)N1CCCCC1)C(=O)N[C@@H](Cc1ccccc1)C(=O)N1CCC[C@H]1CO` [Compound 64]: the IC50 in assay [1] (setting [3]) was more than 206 µM; in assay [1] (setting [4]) it was more than 100 µg/mL.
For `O=C(O)CNC(=O)C(CS)Cc1ccccc1` (racemic) [DL-Thiorphan, reference compound], in assay [2], the “Daudi IC50 (ug/mL), 5 day thymidine incorporation” value was more than 100 µg/mL. In addition, the IC50 in assay [2] (read-out: Daudi IC50 (uM), 5 day thymidine incorporation) is more than 395 µM; in assay [1] (read-out: HL60 IC50 (uM), 5 day thymidine incorporation) it was more than 395 µM. In assay [1], the “HL60 IC50 (ug/mL), 5 day thymidine incorporation” value is more than 100 µg/mL.
Regarding `CCCCC[C@H](CC(=O)NCc1ccc(OC)cc1OC)C(=O)N[C@@H](Cc1ccccc1)C(=O)N1CCC[C@H]1CO` [Compound 59], the IC50 was more than 176 µM in assay [1] (setting [3]) and more than 100 µg/mL in assay [1] (setting [4]).
The corresponding values for `CCCCC[C@H](CC(=O)NN(C)C)C(=O)N[C@@H](Cc1ccccc1)C(=O)N1CCC[C@H]1CO` [Compound 60, 2-(N′,N′-dimethyl-hydrazinocarbonylmethyl)-heptanoic acid [1-benzyl-2-(2-hydroxymethyl-pyrrolidin-1-yl)-2-oxo-ethyl]-amide] are 196 µM and 90 µg/mL.
Regarding `CCCCC[C@H](CC(=O)NO)C(=O)N[C@H](C(=O)N1CCC[C@H]1CN)C(C)C` [Compound 53, N4-hydroxy-N1-(1-(2-methylamine-pyrrolidine-1-carbonyl)-2-methyl-propyl)-2-pentyl-succinamide], the IC50 stood at 18.2 µM in assay [2] (setting [5]), 7 µg/mL in assay [2] (setting [6]), 26 µM in assay [1] (setting [3]) and 10 µg/mL in assay [1] (setting [4]). The inhibiting cell growth entry in the assay on Daudi and HL60 cells is given as “effective”.
Regarding `CCCC[C@@H](C=O)NC(=O)[C@H](CC(C)C)NC(=O)OCc1ccccc1` [Calpeptin, reference compound], the IC50 was 16.6 µM in assay [2] (setting [5]), 6 µg/mL in assay [2] (setting [6]), 138 µM in assay [1] (setting [3]) and 50 µg/mL in assay [1] (setting [4]).
Consider `CCCCC[C@H](CC(=O)NOC)C(=O)N[C@@H](Cc1ccccc1)C(=O)N1CCC[C@H]1CO` [Compound 63], for which the values for the IC50 in assay [1] (setting [3]) and in assay [1] (setting [4]) were more than 224 µM and more than 100 µg/mL, respectively.
The corresponding values for `CCCCC[C@H](CC(=O)NCC)C(=O)N[C@@H](Cc1ccccc1)C(=O)N1CCC[C@H]1CO` [Compound 58] are more than 225 µM and more than 100 µg/mL.
On to `CCCCC[C@H](CC(=O)N(CC)CC)C(=O)N[C@@H](Cc1ccccc1)C(=O)N1CCC[C@H]1CO` [Compound 57], for which the IC50 in assay [1] (setting [3]) is more than 211 µM; in assay [1] (setting [4]) it was more than 100 µg/mL.
Turning to `CCCCC[C@H](CC(=O)O)C(=O)N[C@@H](Cc1ccccc1)C(=O)N1CCC[C@H]1CO` [Compound 54, 3-[1-(2-hydroxymethyl-pyrrolidin-1-yl)-2-benzylcarbamoyl]-octanoic acid], the IC50 is more than 239 µM in assay [1] (setting [3]) and more than 100 µg/mL in assay [1] (setting [4]).
`CCCCC[C@H](CC(=O)NO)C(=O)N[C@@H](CC(C)C)C(=O)N1CCC[C@H]1CO` [Compound 35, N4-hydroxy-N1-(1-(2-hydroxymethyl-pyrrolidine-1-carbonyl)-3-methyl-butyl)-2-pentyl-succinamide]: the IC50 stood at 14.1 µM in assay [2] (setting [5]), 5.7 µg/mL in assay [2] (setting [6]), 17.7 µM in assay [1] (setting [3]) and 7.1 µg/mL in assay [1] (setting [4]). Moreover, the inhibiting cell growth entry in the assay on Daudi and HL60 cells is listed as “effective”.
Take `CCCCC[C@H](CC(=O)NO)C(=O)N[C@H](C(=O)N1CCC[C@H]1C(=O)O)C(C)C` [Compound 56, N4-hydroxy-N1-(1-(2-carboxy-pyrrolidine-1-carbonyl)-2-methyl-propyl)-2-pentyl-succinamide]: the IC50 in assay [2] (setting [5]) was more than 251 µM; in assay [2] (setting [6]), more than 100 µg/mL; in assay [1] (setting [3]), more than 251 µM; in assay [1] (setting [4]), more than 100 µg/mL. Also, the inhibiting cell growth entry in the assay on Daudi and HL60 cells is “effective”.
As for `CCCCC[C@H](CC(N)=O)C(=O)N[C@H](C(=O)N1CCC[C@H]1C)C(C)C` (stereo in doubt) [Compound 51, N1-(1-(2-methyl-pyrrolidine-1-carbonyl)-2-methyl-propyl)-2-pentyl-succinamide], the IC50 in assay [2] (setting [5]) is 18.7 µM; in assay [2] (setting [6]) it was 6.6 µg/mL; in assay [1] (setting [3]), 19.5 µM; in assay [1] (setting [4]) it was 6.9 µg/mL.
Consider `CCCCC[C@H](CC(=O)NO)C(=O)N[C@@H](Cc1ccccc1)C(=O)N1CCC[C@H]1CO` [Compound 42, N1-(1-benzyl-2-(2-hydroxymethyl-pyrrolidin-1-yl)-2-oxo-ethyl)-N4-hydroxy-2-pentyl-succinamide], for which the IC50 in assay [2] (setting [5]) came out at 12.9 µM; in assay [2] (setting [6]), 5.8 µg/mL; in assay [1] (setting [3]) it was 15.8 µM; in assay [1] (setting [4]), 7.1 µg/mL. Also, the inhibiting cell growth result in the assay with Daudi and HL60 cells is recorded as “effective”.
On to `CCCCC[C@H](CC(=O)NO)C(=O)N[C@H](C(=O)N1CCC[C@H]1C(=O)OC)C(C)C` [Compound 55], for which the IC50 stood at 0.97 µM in assay [2] (setting [5]), 0.402 µg/mL in assay [2] (setting [6]), 6.7 µM in assay [1] (setting [3]) and 2.77 µg/mL in assay [1] (setting [4]).
